Reference: PMC9696794, “Synthesis and Antimicrobial Activity of Short Analogues of the Marine Antimicrobial Peptide Turgencin A: Effects of SAR Optimizations, Cys-Cys Cyclization and Lipopeptide Modifications” (International Journal of Molecular Sciences, 2022)
Where a SMILES comes first, the peptide text is derived from it. The star is where a group is joined. Decanoyl = CCCCCCCCCC(=O)*; Octanoyl = CCCCCCCC(=O)*

Key:
[1] = system: B. subtilis (Bs, ATCC 23857); assay: microbe, parasite or virus in culture; format: cell-based, Bacillus subtilis; conditions: ATCC 23857, 24 h
Protocol: (§1) All cyclic and linear peptides were screened for antibacterial activity against four Gram-positive strains: B. subtilis (Bs, ATCC 23857), C. glutamicum (Cg, ATCC 13032), S. aureus (Sa, ATCC 9144) and S. epidermidis RP62A (Se, ATCC 35984), and two Gram-negative strains: E. coli (Ec, ATCC 25922) and P. aeruginosa (Pa, ATCC 27853). The activity was assessed using a broth microdilution assay according to a modified CLSI-based method. Briefly, overnight bacterial cultures were grown in Mueller–Hinton (MH) broth medium (Difco Laboratories, Detroit, MI, USA) for 2 h at room temperature. The optical density (OD600) was measured, and the bacterial suspensions were adjusted to 2.5–3 × 10^4 CFU/mL in MH medium. The bacterial suspension (50 µL) was distributed in 96-well plates (Nunc, Roskilde, Denmark) preloaded with two-fold dilution series (256 to 1 µg/mL) of peptide solutions (50 µL), giving a final well volume of 100 µL. The microplates were incubated in an EnVision 2103 microplate reader (PerkinElmer, Llantrisant, UK) at 35 °C, with OD595 recorded every hour for 24 h. MIC was defined as the lowest concentration of peptides showing an optical density less than 10% of the negative (growth) control, consisting of bacterial suspension and water. Polymyxin B sulfate (Sigma-Aldrich, St. Louis, MO, USA) and chlorhexidine acetate (CHX, Fresenius Kabi, Halden, Norway), both with concentrations ranging from 12.5 to 0.09 μg/mL, served as positive (growth inhibition) controls. All peptides were tested in triplicate.

[2] = system: C. glutamicum (Cg, ATCC 13032); assay: microbe, parasite or virus in culture; format: cell-based, Corynebacterium glutamicum; conditions: ATCC 13032, 24 h
Protocol: as §1

[3] = system: S. aureus (Sa, ATCC 9144); assay: microbe, parasite or virus in culture; format: cell-based, Staphylococcus aureus; conditions: ATCC 9144, 24 h
Protocol: as §1

[4] = system: S. epidermidis RP62A (Se, ATCC 35984); assay: microbe, parasite or virus in culture; format: cell-based, Staphylococcus epidermidis; conditions: ATCC 35984, 24 h
Protocol: as §1

E. coli (Ec, ATCC 25922) = assay: microbe, parasite or virus in culture; format: cell-based, Escherichia coli; conditions: ATCC 25922, 24 h
Protocol: as §1

[5] = system: P. aeruginosa (Pa, ATCC 27853); assay: microbe, parasite or virus in culture; format: cell-based, Pseudomonas aeruginosa; conditions: ATCC 27853, 24 h
Protocol: as §1

all bacterial strains = assay: Antibacterial MIC assay, all bacterial strains together (range or geometric mean); format: cell-based; conditions: for GM (geometric mean of the MIC values against all bacterial strains): Table 1, six bacterial strains; for GM of MIC Tot. bact.: Table S3, all bacterial test strains, MIC >256 set to 256
Protocol: The selectivity index (SI) of the peptides towards bacteria over eukaryotic cells was calculated using the geometric mean (GM) of the MIC values against all bacterial test strains, according to the method by Orlov et al.. The SI for each peptide was determined as the ratio of the RBC-EC50 value by the corresponding GM value. Larger SI values indicate greater selectivity for microbial cells. […] In general, the SI was higher against the Gram-positive bacteral strains than the Gram-negative strains. (Table S3). Overall, peptides displaying EC50 < 100 µg/mL were considered too haemolytic to be of interest for further exploration.
as §1

A. pullulans (Ap) = assay: microbe, parasite or virus in culture; format: cell-based, Aurobasidium pollulans; conditions: 48 h
Protocol: (§2) The synthesized peptides were screened for antifungal activity against the molds A. pullulans (Ap) and Rhodotorula sp. (Rh) (both obtained from Professor Arne Tronsmo, The Norwegian University of Life Sciences, Ås, Norway) and the yeast C. albicans (Ca, ATCC 10231) as previously described. In short, fungal spores were grown in potato dextrose broth media (Difco) containing 2% D(+)-glucose (Merck, Darmstadt, Germany) at 25–30 °C while shaking at 200 rpm overnight. The cultures were diluted with a dextrose media containing glucose to a concentration of approx. 4 × 10^5 spores/mL. Aliquots of the cultures (50 µL) were transferred to 96 well microtiter plates preloaded with the synthetic peptides (50 µL) in two-fold serial dilutions (256 to 1 µg/mL). Polymyxin B and CHX (both with concentrations ranging from 12.5 to 0.09 μg/mL) served as positive antibiotic controls. The microtiter plates containing the fungal spores and the test peptides were incubated at room temperature for 48 h and OD600 was recorded using a Synergy H1 Hybrid microplate reader system (BioTek, Winooski, VT, USA). MIC was defined as the lowest peptide concentration showing an optical density less than 10% of the negative (growth) control. All experiments were performed in triplicate.

[6] = system: C. albicans (Ca, ATCC 10231); assay: microbe, parasite or virus in culture; format: cell-based, Candida albicans; conditions: ATCC 10231, 48 h
Protocol: as §2

Rhodotorula sp. (Rh) = assay: microbe, parasite or virus in culture; format: cell-based; conditions: 48 h
Protocol: as §2

[7] = system: human red blood cells (RBC); assay: Haemolytic activity assay; format: cell-based; conditions: for Selectivity index (SI) G- / Selectivity index (SI) G+ / Selectivity index (SI) Fungi: Table S3, highest tested concentration used where EC50 above it; for Selectivity index (SI) G-: EC50/GM of Gram-negative strains; for Selectivity index (SI) G+: EC50/GM of Gram-positive strains; for Selectivity index (SI) Fungi: EC50/GM of fungi; for SI (selectivity index = EC50/GM): haemolytic EC50 over GM of MIC against all bacterial strains, Table 1; for RBC Tox. (EC50), haemolytic activity: human RBC, 1 h, 37 °C, concentration giving 50% haemolysis
Protocol: The synthetized lipopeptides were screened for haemolytic activity against human red blood cells (RBC), in concentrations ranging from 500 to 3.9 μM, following a previously described protocol. In brief, haemolysis was determined using a heparinizied (10 IU/mL) fraction of freshly drawn human blood. A second fraction of blood, which was collected in test tubes containing ethylenediaminetetraacetic acid (EDTA, Vacutest, KIMA, Arzergrande, Italy), was used for determination of the hematocrit (hct). Plasma was removed from heparinized blood by washing three times with prewarmed phosphate-buffered saline (PBS) before being adjusted to a hematocrit of 4%. Peptides dissolved in dimethyl sulfoxide (DMSO) were further diluted with PBS to a final DMSO content of ≤1%. Triton X-100 (Sigma-Aldrich, St. Louis, MO, USA), used at a final concentration of 0.1%, served as a positive control for 100% haemolysis, whereas 1% DMSO in PBS buffer served as a negative control where no toxicity was detected. Duplicates of test solutions and erythrocytes, with 1% hct final concentration, were prepared in a 96-well polypropylene V-bottom plate (Nunc, Fischer scientific, Oslo, Norway). They were incubated under agitation at 37 °C and 800 rpm for 1 h. After centrifugation (5 min, 3000× g), 100 µL from each well were transferred to a flat-bottomed 96-well plate and absorbance was measured at 545 nm with a microplate reader (SpectraMax 190, Molecular Devices, San Jose, CA, USA). After subtracting PBS background, the percentage of haemolysis was calculated as the ratio of the absorbance in the peptide-treated and surfactant-treated samples. Three independent experiments were performed, and EC50 (the concentration giving 50% haemolysis) values are presented as averages.

[8] = system: Gram-positive bacterial strains; conditions: for GM of MIC G+: Table S3, MIC >256 set to 256
Protocol: as §1

[9] = system: Gram-negative bacterial strains (E. coli and P. aeruginosa); assay: Antibacterial MIC assay, Gram-negative strains together (range or geometric mean); format: cell-based; conditions: Table S3; MIC >256 set to 256
Protocol: as §1

[10] = system: fungi (A. pullulans, C. albicans, Rhodotorula sp.); assay: Antifungal MIC assay, all fungi together (range or geometric mean); format: cell-based; conditions: Table S3; MIC >128 set to 128
Protocol: as §2

Row | Structure (SMILES) | Antimicrobial Activity (MIC) Gram + Bs [1] [µg/mL] | Antimicrobial Activity (MIC) Gram + Cg [2] [µg/mL] | Antimicrobial Activity (MIC) Gram + Sa [3] [µg/mL] | Antimicrobial Activity (MIC) Gram + Se [4] [µg/mL] | Antimicrobial Activity (MIC) Gram − Ec (E. coli (Ec, ATCC 25922)) [µg/mL] | Antimicrobial Activity (MIC) Gram − Pa [5] [µg/mL] | GM (geometric mean of the MIC values against all bacterial strains) (all bacterial strains) [µg/mL] | GM of MIC Tot. bact. (all bacterial strains) [µg/mL] | Antimicrobial Activity (MIC) Fungi Ap (A. pullulans (Ap)) [µg/mL] | Antimicrobial Activity (MIC) Fungi Ca [6] [µg/mL] | Antimicrobial Activity (MIC) Fungi Rh (Rhodotorula sp. (Rh)) [µg/mL] | Selectivity index (SI) G- [7] | Selectivity index (SI) G+ [7] | Selectivity index (SI) Fungi [7] | SI (selectivity index = EC50/GM) [7] | RBC Tox. (EC50), haemolytic activity [7] [µg/mL] | MIC against the Gram-positive bacterial strains ([8]; 2 h) [µg/mL] | GM of MIC G+ [8] [µg/mL] | GM of MIC G- [9] [µg/mL] | GM of MIC Fungi [10] [µg/mL]
1 | CCCCCCCC(=O)N[C@@H](CS)C(=O)NCC(=O)N[C@@H](CCCCN)C(=O)N[C@@H](CCCCN)C(=O)N[C@@H](Cc1c[nH]c2ccccc12)C(=O)N[C@@H](Cc1c[nH]c2ccccc12)C(=O)NCC(=O)N[C@@H](Cc1c[nH]c2ccccc12)C(=O)N[C@@H](CCCCN)C(=O)N[C@@H](CS)C(=O)N[C@@H](CCCCN)C(=O)N[C@@H](CC(C)C)C(N)=O [Peptide C8-Turg-2, C8- CGKKWWGWKC KL-NH2] (Octanoyl-CGKKWWGWKCKL-NH2) | 8 | 4 | 8 | 8 | 16 | 16 | 9 | 9 | 32 | 64 | 32 | 12 | 29 | 5 | 22 | 198 | 4 to 8 | 7 | 16 | 40
2 | CCCCCCCC(=O)N[C@@H](CS)C(=O)NCC(=O)N[C@@H](CCCNC(=N)N)C(=O)N[C@@H](CCCNC(=N)N)C(=O)N[C@@H](Cc1c[nH]c2ccccc12)C(=O)NCC(=O)N[C@@H](Cc1c[nH]c2ccccc12)C(=O)N[C@@H](Cc1c[nH]c2ccccc12)C(=O)N[C@@H](CCCNC(=N)N)C(=O)N[C@@H](CS)C(=O)N[C@@H](CCCNC(=N)N)C(=O)N[C@@H](CC(C)C)C(N)=O [Peptide C8-Turg-6, C8- CGRRWGWWRC RL-NH2] (Octanoyl-CGRRWGWWRCRL-NH2) | 4 | 4 | 16 | 8 | 8 | 32 | 9 | 9 | 128 | 64 | 128 | 3 | 8 | 1 | 6 | 54 | – | 7 | 16 | 102
3 | CCCCCCCCCC(=O)N[C@@H](CS)C(=O)NCC(=O)N[C@@H](CCCCN)C(=O)N[C@@H](CCCCN)C(=O)N1CCC[C@H]1C(=O)NCC(=O)NCC(=O)N[C@@H](Cc1c[nH]c2ccccc12)C(=O)N[C@@H](CCCCN)C(=O)N[C@@H](CS)C(=O)N[C@@H](CCCCN)C(=O)N[C@@H](CC(C)C)C(N)=O [Peptide C10-Turg-1, C10- CGKKPGGWKC KL-NH2] (Decanoyl-CGKKPGGWKCKL-NH2) | 4 | 4 | 16 | 8 | 16 | 32 | 10 | 10 | 32 | 64 | 8 | > 42 | > 142 | > 38 | >95 | >957 | – | 7 | 23 | 25
